Experimental data taken from patent US11827622B2, “Crystalline forms of imidacloprid and methods of use thereof” (New York University, priority 2020, dated 2023).

How the values were obtained:
Drosophila melanogaster = test: Lethality (knockdown time) on contact with IMI polymorph microcrystals in petri dish, fruit flies; assay type: in vivo; conditions: for KT50 (95% CI): median knockdown time, 2.0 mg microcrystals per 35 mm dish; for times faster-acting than Form I: ratio of KT50 values
Experimental: (§1) Lethality measurements for IMI polymorphs. Microcrystals of IMI Forms I, IV, VI, and IX were prepared by grinding respective single crystals using a mortar and pestle. Their compositions were then analyzed by powder X-ray diffraction (PXRD). Lethality measurements were performed in triplicate for each solid-state form, each accompanied by three controls (no insecticide). 2.0 mg of microcrystals was added to a 35 mm diameter polystyrene petri dish, which was subsequently shaken to disperse the microcrystals throughout the petri dish. Microcrystals was added to a polystyrene petri dish (2.000 mg microcrystals per 35 mm diameter dish for fruit flies; 0.100 mg microcrystals per 100 mm diameter dish for mosquitoes), which was subsequently shaken to disperse the microcrystals throughout the petri dish. Adult mosquitoes (Ae. aegypti, A. quadrimaculatus or C. quinquefasciatus) or fruit flies (D. melanogaster) were sedated with carbon dioxide and 30 female mosquitoes or 20 flies were transferred to each petri dish. The top of the dish was then placed over the bottom and the motion of the insects was recorded with a video camera (Sony HDR-CX455). The knockdown time was measured for each individual insect, with knockdown associated with an insect laying on the bottom surface of the petri dish in a supine position without moving from its original position after 10 seconds.
(§2) Statistical analyses. Logistic regression of knockdown-time curves was preformed to obtain the median knockdown time (KT50) of the test flies and mosquitoes, the 95% confidence intervals (CI), slopes, and standard errors (SE) using Qcal software.
IMI Forms IX, VI, IV were selected for lethality comparison with the commercial Form I, collectively representing a quartet spanning a wide range of free energies. […] A video camera was used to record the knockdown times—a proxy for lethality—for each insect. KT50 values, the times required for 50% of the insects to become immobile and supine, were calculated by logistic regression of knockdown-time curves (FIGS. 34A-34P). Shorter KT50 values correspond to greater lethality. Accordingly, Forms IX, VI and IV were 5.7, 2.5 and 1.8 times faster-acting than Form I.

Aedes aegypti = test: Lethality (knockdown time) on contact with IMI polymorph microcrystals in petri dish, Aedes mosquitoes; assay type: in vivo; conditions: for KT50 (95% CI): Aedes females, median knockdown time, 0.100 mg microcrystals per 100 mm dish
Experimental: as §1, §2

[1] = test system: Anopheles quadrimaculatus; test: Lethality (knockdown time) on contact with IMI polymorph microcrystals in petri dish, Anopheles mosquitoes; assay type: in vivo; conditions: Anopheles females; median knockdown time; 0.100 mg microcrystals per 100 mm dish
Experimental: as §1, §2

Culex quinquefasciatus = test: Lethality (knockdown time) on contact with IMI polymorph microcrystals in petri dish, Culex mosquitoes; assay type: in vivo; conditions: Culex females; median knockdown time; 0.100 mg microcrystals per 100 mm dish
Experimental: as §1, §2

[2] = assay type: physicochemical
Experimental: IMI polymorphs exposed in open air at ambient temperature are typically stable for at least 6 months. Although the polymorphic forms were distinguishable by visual inspection (from their interference colors between crossed polarizers and morphologies), their identity and any phase transformations were always corroborated by micro-Raman spectroscopy and PXRD. Form IX held at 95° C. on a microscope hot stage in air transformed to Form V in 3 min, which then converted to Form I at 110° C. in 2 min. Form I also can nucleate directly on the surface of Form IX at T>70° C. Form IX crystals confined between glass slides nucleate Form I, V or VI within Form IX at 80° C. within 1 min. […] Form VI transforms to III when they were in contact at 110° C.

Aedes = test: Lethality measurement of IMI vapor, Aedes; assay type: in vivo, Aedes aegypti
Experimental: (§3) Crystalline insecticide was added to an opened glass vial tapped to the bottom of a petri dish, which was subsequently covered with porous polyester substrate. Female Aedes and Drosophila were sedated with carbon dioxide and were transferred onto the porous substrate. An inverted petri dish was then placed over the polyester substrate to seal the assembly. The motion of the Aedes and Drosophila was recorded with a video camera. An opened glass vial containing 2.0 mg IMI microcrystals was tapped to the bottom of the petri dish (FIGS. 35A-35E).

Drosophila = test: Lethality measurement of IMI vapor, Drosophila; assay type: in vivo, Drosophila melanogaster
Experimental: as §3

[3] = 2.0 mg IMI microcrystals in opened glass vial under porous polyester substrate

Structure (SMILES) | KT50 (95% CI) (Drosophila melanogaster) | KT50 (95% CI) (Aedes aegypti) | KT50 (95% CI) [1] | KT50 (95% CI) (Culex quinquefasciatus) | times faster-acting than Form I (Drosophila melanogaster) [times] | further results
O=[N+]([O-])NC1=NCCN1Cc1ccc(Cl)nc1 [Form I, 1-[(6-chloro-3-pyridinyl)-methyl]-N-nitro-2-imidazolidinimine, reference compound] | 562 (536-589) min | 643 (621-664) min | 524 (515-534) min | 573 (568-581) min | – | thermodynamic stability [2]: the most thermodynamically stable crystal form
O=[N+]([O-])N=C1NCCN1Cc1ccc(Cl)nc1 [Form IV, 1-[(6-chloro-3-pyridinyl)-methyl]-N-nitro-2-imidazolidinimine] | 321 (302-343) min | 335 (329-342) min | 220 (216-224) min | 311 (309-313) min | 1.8 | –
O=[N+]([O-])NC1=NCCN1Cc1ccc(Cl)nc1 [Form IX, 1-[(6-chloro-3-pyridinyl)-methyl]-N-nitro-2-imidazolidinimine] | 99 (93-105) min | 70 (68-71) min | 84 (82-86) min | 89 (88-91) min | 5.7 | kinetic stability against transformation to other polymorphs [2]: kinetically stable against transformations to other polymorphs; time to nucleation of Form I, V or VI within the form ([2]; crystals confined between glass slides, 80° C.): ≤ 1 min; time of transformation to Form V ([2]; held at 95° C. on microscope hot stage in air): 3 min
O=[N+]([O-])N=C1NCCN1Cc1ccc(Cl)nc1 [Form V, 1-[(6-chloro-3-pyridinyl)-methyl]-N-nitro-2-imidazolidinimine] | – | – | – | – | – | time of conversion to Form I ([2]; at 110° C.): 2 min
O=[N+]([O-])N=C1NCCN1Cc1ccc(Cl)nc1 [Form VI, 1-[(6-chloro-3-pyridinyl)-methyl]-N-nitro-2-imidazolidinimine] | 223 (210-238) min | 152 (147-157) min | 143 (141-144) min | 192 (189-195) min | 2.5 | –
O=[N+]([O-])N=C1NCCN1Cc1ccc(Cl)nc1 [IMI, 1-[(6-chloro-3-pyridinyl)-methyl]-N-nitro-2-imidazolidinimine] | – | – | – | – | – | time within which all insects were knocked down (Drosophila melanogaster; direct contact with the same amount of IMI microcrystals in petri dishes): ≤ 10 h; time within which all insects were knocked down (Aedes aegypti; Aedes, direct contact with the same amount of IMI microcrystals in petri dishes): ≤ 10 h; effect of exposure to IMI vapor (Aedes; [3]): remained viable with no nerve firing symptoms; effect of exposure to IMI vapor (Aedes; after 12 hours): remained viable with no nerve firing symptoms; effect of exposure to IMI vapor (Drosophila; [3]): remained viable with no nerve firing symptoms; effect of exposure to IMI vapor (Drosophila; after 12 hours): remained viable with no nerve firing symptoms
